Values quoted from earlier work, collected in patent US20180221332A1, “Flash-Melt Cannabinoid Formulations” (CannTab Therapeutics Limited, priority 2017, published 2018).

Legend:
[1] = NICHD/FDA Oral Formulations Platform Report 1; low solubility, unknown permeability
[2] = after administration

CCCCCc1cc(O)c2c(c1)OC(C)(C)[C@@H]1CCC(C)=C[C@@H]21 [Dronabinol, (−)-trans-Δ^9-tetrahydrocannabinol]
biopharmaceutics class [1]: class 2 or class 4
duration of appetite stimulant effect [2]: ≥ 24 h
